Measured values: patent publication US12581252B2, “Substituted pyrrolo[3,4-b]pyridines as PI3K-α inhibitors” (Relay Therapeutics, Inc., priority 2020, dated 2026)

Target: H1047R PIK3CA enzyme (Homo sapiens, UniProt P42336, H1047R)
Test: ADP-Glo Biochemical PIK3CA Kinase Assay

Sequence of H1047R PIK3CA enzyme (P42336 whole entry H1047R): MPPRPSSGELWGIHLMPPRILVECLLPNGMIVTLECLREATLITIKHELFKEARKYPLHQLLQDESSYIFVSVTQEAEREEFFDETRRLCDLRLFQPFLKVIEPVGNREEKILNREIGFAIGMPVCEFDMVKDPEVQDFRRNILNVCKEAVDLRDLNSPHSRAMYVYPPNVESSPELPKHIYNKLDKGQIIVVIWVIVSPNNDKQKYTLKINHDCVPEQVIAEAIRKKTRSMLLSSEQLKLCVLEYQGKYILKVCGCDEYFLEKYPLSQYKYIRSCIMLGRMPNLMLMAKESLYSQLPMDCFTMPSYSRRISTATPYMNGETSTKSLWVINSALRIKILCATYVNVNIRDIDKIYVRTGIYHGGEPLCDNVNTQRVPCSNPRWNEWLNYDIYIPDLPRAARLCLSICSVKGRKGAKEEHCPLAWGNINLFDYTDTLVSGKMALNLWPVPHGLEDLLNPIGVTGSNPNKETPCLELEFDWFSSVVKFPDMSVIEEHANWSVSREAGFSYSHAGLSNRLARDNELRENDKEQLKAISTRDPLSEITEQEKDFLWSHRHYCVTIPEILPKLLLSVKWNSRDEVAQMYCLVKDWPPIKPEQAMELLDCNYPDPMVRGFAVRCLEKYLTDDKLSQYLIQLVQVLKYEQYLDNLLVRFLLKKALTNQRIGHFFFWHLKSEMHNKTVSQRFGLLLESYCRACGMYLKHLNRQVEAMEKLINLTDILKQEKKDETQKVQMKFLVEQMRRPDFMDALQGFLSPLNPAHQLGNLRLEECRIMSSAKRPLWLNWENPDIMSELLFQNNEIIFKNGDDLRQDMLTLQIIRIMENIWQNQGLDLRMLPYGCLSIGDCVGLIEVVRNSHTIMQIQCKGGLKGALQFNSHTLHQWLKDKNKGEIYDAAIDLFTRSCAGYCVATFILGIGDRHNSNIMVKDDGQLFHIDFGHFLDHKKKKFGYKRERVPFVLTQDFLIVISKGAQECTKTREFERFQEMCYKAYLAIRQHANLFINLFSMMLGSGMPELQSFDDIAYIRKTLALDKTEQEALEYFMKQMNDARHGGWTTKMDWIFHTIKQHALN
Sequence of H1047R PIK3CA enzyme (P27986 whole entry partner): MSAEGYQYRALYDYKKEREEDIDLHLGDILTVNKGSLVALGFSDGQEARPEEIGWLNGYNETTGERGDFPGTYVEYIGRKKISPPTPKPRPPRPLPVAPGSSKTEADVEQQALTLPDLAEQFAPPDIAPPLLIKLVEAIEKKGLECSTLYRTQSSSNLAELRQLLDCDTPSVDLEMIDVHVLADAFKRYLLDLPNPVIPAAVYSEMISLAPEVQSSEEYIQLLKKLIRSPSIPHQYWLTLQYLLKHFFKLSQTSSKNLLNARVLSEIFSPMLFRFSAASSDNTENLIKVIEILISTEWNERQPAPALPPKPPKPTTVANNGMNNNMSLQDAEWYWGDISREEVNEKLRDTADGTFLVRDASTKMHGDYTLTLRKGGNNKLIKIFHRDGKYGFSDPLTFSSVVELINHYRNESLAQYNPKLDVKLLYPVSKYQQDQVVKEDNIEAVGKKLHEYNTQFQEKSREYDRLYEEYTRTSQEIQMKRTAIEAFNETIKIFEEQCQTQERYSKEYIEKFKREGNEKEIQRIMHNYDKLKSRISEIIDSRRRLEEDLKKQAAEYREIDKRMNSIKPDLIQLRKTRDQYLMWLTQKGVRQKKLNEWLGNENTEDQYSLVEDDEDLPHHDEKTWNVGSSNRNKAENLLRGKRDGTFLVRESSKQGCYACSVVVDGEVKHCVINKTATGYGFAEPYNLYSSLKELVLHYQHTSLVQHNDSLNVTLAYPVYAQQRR

| SMILES | IC50 [nM] |
| --- | --- |
| CN1CCCC[C@H]1C(=O)Nc1cc(-c2ccc3ncnn3c2)cc2c1[C@@H](c1cc(F)ccc1Cl)NC2=O (racemic) [Compound I-1947] | 10000 to 100000 |
| O=C(Nc1cc(Br)cc2c1[C@@H](c1ccccc1C(F)F)NC2=O)c1cc(F)cc(C(F)(F)F)c1 [Compound I-790] | 1000 to 10000 |
| O=C(Nc1cnc(N2CCOCC2)c2c1C(c1cc(F)ccc1Cl)NC2=O)c1cc(F)cc(C(F)(F)F)c1 (stereo not shown) [Compound I-255] | 1000 to 10000 |
| O=C1NC(c2cc(F)ccc2Cl)c2c(NC3CCS(=O)(=O)CC3)cc(-c3ccc4ncnn4c3)cc21 (stereo not shown) [Compound I-2010] | 10000 to 100000 |
| O=C1NC(c2cc(F)ccc2Cl)c2c(NC(=O)N3CCC(C(F)(F)F)C3)cc(-c3ccc4ncnn4c3)cc21 (stereo not shown) [Compound I-1903] | 1000 to 10000 |
| O=C(Nc1cc(-c2cc(F)n3ncnc3c2)cc2c1[C@@H](c1cc(F)ccc1Cl)NC2=O)c1cc(F)cc(C(F)(F)F)c1 [Compound I-1926] | 1000 to 10000 |
| O=C1NC(c2cc(F)ccc2Cl)c2c(NC(=O)N3CC(O)(c4scnc4C(F)(F)F)C3)cccc21 (stereo not shown) [Compound I-2417] | 10000 to 100000 |
| O=C1N[C@@H](c2cc(F)ccc2Cl)c2c(NC(=O)N3C[C@](O)(C(F)F)c4cc(F)ccc43)cc(Cl)cc21 (single isomer, unassigned) [Compound I-2590] | 1000 to 10000 |
| CCOc1ncc(C(=O)Nc2cccc3c2C(c2ccccc2C)NC3=O)cc1F (stereo not shown) [Compound I-107] | 10000 to 100000 |
| O=C(Nc1cccc2c(=O)[nH]n(Cc3ccccc3)c12)c1csc2ccccc12 [Compound I-118] | 10000 to 100000 |
| O=C1Cc2cc(NC(=O)c3cc(F)cc(C(F)(F)F)c3)ccc2C(c2ccccc2Cl)N1 (stereo not shown) [Compound I-1177] | 1000 to 10000 |
| O=C(Nc1cc(-c2ccccc2S(=O)(=O)F)cc2c1C(c1cc(F)ccc1Cl)NC2=O)c1cc(F)cc(C(F)(F)F)c1 (stereo not shown) [Compound I-1264] | ≤ 100 |
| O=C1CCc2cc(F)cc(C(=O)Nc3cc(Br)cc4c3C(c3cc(F)ccc3Cl)NC4=O)c2N1 (stereo not shown) [Compound I-1546] | 10000 to 100000 |
| N#Cc1ccc(C2NC(=O)c3cccc(NC(=O)c4cc(F)cc(C(F)(F)F)c4)c32)c(Cl)c1 (stereo not shown) [Compound I-422] | 10000 to 100000 |
| N#CCc1ccc(NC(=O)N2C[C@@](O)(C(F)(F)F)c3cc(F)ccc32)c2c1C(=O)N[C@H]2c1cc(F)ccc1Cl (single isomer, unassigned) [Compound I-2616] | 1000 to 10000 |
| O=C1NC(c2cc(F)ccc2Cl)c2c(NC(=O)C3CCCC(O)C3)cc(-c3ccc4ncnn4c3)cc21 (stereo not shown) [Compound I-1723] | 10000 to 100000 |

| SMILES | IC50 [nM] |
| --- | --- |
| O=C1N[C@H](c2cc(F)ccc2Cl)c2c(NC(=O)[C@@H]3CC[C@H](O)C3)cc(Br)cc21 (single isomer, unassigned) [Compound I-2105] | 10000 to 100000 |
| CC(C)(O)C12CC(C(=O)Nc3cccc4c3C(c3cc(F)ccc3Cl)NC4=O)(C1)C2 (stereo not shown) [Compound I-2117] | 10000 to 100000 |
| CC1(C2NC(=O)c3cccc(NC(=O)c4cc(F)cc(C(F)(F)F)c4)c32)CC1 (racemic) [Compound I-1791] | 10000 to 100000 |
| O=C(Nc1cccc2c1C1(CCc3ccccc31)NC2=O)c1cc(F)cc(C(F)(F)F)c1 (stereo not shown) [Compound I-188] | 10000 to 100000 |
| O=C(/C=C/c1ccccc1)Nc1cccc2c1C(c1cc(F)ccc1Cl)NC2=O (stereo not shown) [Compound I-2372] | 10000 to 100000 |
| O=C(Cc1ccccc1)Nc1cc(-c2ccc3ncnn3c2)cc2c1C(c1cc(F)ccc1Cl)NC2=O (stereo not shown) [Compound I-1665] | 10000 to 100000 |
| Cc1ccccc1C1NC(=O)c2cccc(NC(=O)c3csc4cccc(F)c34)c21 (stereo not shown) [Compound I-67] | 1000 to 10000 |
| O=C1NC(c2cc(F)ccc2Cl)c2c(NC(=O)C3(c4cccc(F)c4)CC3)cc(Br)cc21 (stereo not shown) [Compound I-557] | 1000 to 10000 |
| O=C(Nc1cc(Br)cc2c1C(c1cc(F)ccc1Cl)NC2=O)c1cc(Cl)ccc1C(F)F (stereo not shown) [Compound I-911] | 1000 to 10000 |
| O=C(Nc1cc(Br)cc2c1C(c1cc(F)ccc1Cl)NC2=O)c1cc(Cl)cc2c1NCCO2 (stereo not shown) [Compound I-1242] | 1000 to 10000 |
| O=C(Nc1cccc2c1C(C1CCCC(O)C1)NC2=O)c1cc(F)cc(C(F)(F)F)c1 (mixture of isomers) [Compound I-2226] | 10000 to 100000 |
| O=C1NC(c2cc(F)ccc2Cl)c2c1cc(-c1cnn(C(F)F)c1)cc2-c1nc2cc(C(F)(F)F)cc(F)c2[nH]1 (stereo not shown) [Compound I-2048] | 1000 to 10000 |
| Cc1ccccc1C1NC(=O)c2cccc(NC(=O)c3n[nH]cc3-c3ccccc3)c21 (stereo not shown) [Compound I-412] | 10000 to 100000 |
| O=C1NC(c2cc(F)ccc2Cl)c2c(Nc3ccn(CCO)n3)cc(-c3ccc4ncnn4c3)cc21 (stereo not shown) [Compound I-1994] | 10000 to 100000 |
| O=C1NC(c2cc(F)ccc2Cl)c2c(NC(=O)C3CCOc4ccccc43)cc(Br)cc21 (stereo not shown) [Compound I-605] | 10000 to 100000 |
| COc1ccc2c(C(=O)Nc3cccc4c3C(c3ccccc3C)NC4=O)csc2c1 (stereo not shown) [Compound I-79] | 10000 to 100000 |

More lines, now with the values ahead:

| IC50 [nM] | SMILES |
| --- | --- |
| ≤ 100 | O=C(Nc1cc(-c2cc3ncnn3cc2F)cc2c1[C@H](c1cc(F)ccc1Cl)NC2=O)c1cc(F)cc(C(F)(F)F)c1 [Compound I-1868] |
| 1000 to 10000 | O=C(Nc1cc(-c2cnc3nccn3c2)cc2c1[C@@H](c1cc(F)ccc1Cl)NC2=O)c1cc(F)cc(C(F)(F)F)c1 [Compound I-883] |
| 100 to 500 | Cc1ccccc1[C@@H]1NC(=O)c2cccc(NC(=O)c3coc4c(F)cc(F)cc34)c21 [Compound I-98] |
| ≤ 100 | Nc1nccc(-c2cc(NC(=O)c3cc(F)cc(C(F)(F)F)c3)c3c(c2)C(=O)NC3c2cc(F)ccc2Cl)n1 (stereo not shown) [Compound I-1090] |
| ≤ 100 | O=C(Nc1cc(-c2ccc(=O)n(C(F)F)c2)cc2c1C(c1cc(F)ccc1Cl)NC2=O)c1cc(F)cc(C(F)(F)F)c1 (stereo not shown) [Compound I-1768] |
| ≤ 100 | Cc1ccccc1C1NC(=O)c2c(CCO)ccc(NC(=O)c3csc4ccccc34)c21 (stereo not shown) [Compound I-119] |
| ≤ 100 | O=C(Nc1cc(C2=CN3CCN=C3C=C2)cc2c1[C@H](c1cc(F)ccc1Cl)NC2=O)c1cc(F)cc(C(F)(F)F)c1 [Compound I-2090] |
| ≤ 100 | C/S(Cc1cc(NC(=O)c2cc(F)cc(C(F)(F)F)c2)c2c(c1)C(=O)NC2c1cc(F)ccc1Cl)=N\C#N (stereo not shown) [Compound I-1494] |
| 100 to 500 | N#C[C@H]1C[C@H](c2cc(NC(=O)c3cc(F)cc(C(F)(F)F)c3)c3c(c2)C(=O)N[C@@H]3c2cc(F)ccc2Cl)C1 (single isomer, unassigned) [Compound I-1325] |
| ≤ 100 | CNC(=O)Cc1cc(NC(=O)c2cc(F)cc(C(F)(F)F)c2)c2c(c1)C(=O)NC2c1cc(F)ccc1Cl (stereo not shown) [Compound I-438] |
| ≤ 100 | O=C(Nc1cc(NC(=O)C2(O)CC2)cc2c1C(c1cc(F)ccc1Cl)NC2=O)c1cc(F)cc(C(F)(F)F)c1 (stereo not shown) [Compound I-592] |
| 100 to 500 | [2H]C([2H])(c1cc(NC(=O)c2cc(F)cc(C(F)(F)F)c2)c2c(c1)C(=O)N[C@@H]2c1cc(F)ccc1Cl)S(C)(=O)=O (single isomer, unassigned) [Compound I-1788] |
| ≤ 100 | Cc1ccccc1[C@@H]1NC(=O)c2cc(CO)cc(NC(=O)c3nsc4ccccc34)c21 [Compound I-306] |
| 500 to 1000 | O=C1NC(c2cc(F)ccc2Cl)c2c(NC(=O)N3CCCC34CCCC4)cc(Br)cc21 (stereo not shown) [Compound I-2424] |
| ≤ 100 | CS(=O)(=O)c1ccc(-c2cc(NC(=O)c3cc(F)cc(C(F)(F)F)c3)c3c(c2)C(=O)NC3c2cc(F)ccc2Cl)cn1 (stereo not shown) [Compound I-1455] |
| ≤ 100 | Cc1ccc(F)cc1[C@@H]1NC(=O)c2cc(Br)cc(NC(=O)c3cc(F)cc(C(F)(F)F)c3)c21 [Compound I-758] |

| IC50 [nM] | SMILES |
| --- | --- |
| ≤ 100 | Nc1cc(NC(=O)c2cc(F)cc(C(F)(F)F)c2)c2c(c1)C(=O)NC2c1ccccc1Cl (stereo not shown) [Compound I-393] |
| ≤ 100 | O=C(Nc1cc(-c2cn3ccncc3n2)cc2c1C(c1cc(F)ccc1Cl)NC2=O)c1cc(F)cc(C(F)(F)F)c1 (stereo not shown) [Compound I-1300] |
| 100 to 500 | O=C(Nc1cc(OC2CNC2)cc2c1C(c1cc(F)ccc1Cl)NC2=O)c1cc(F)cc(C(F)(F)F)c1 (stereo not shown) [Compound I-1252] |
| 100 to 500 | Nc1cc(NC(=O)c2cc(F)cc(C(F)(F)F)c2)c2c(n1)C(=O)NC2c1cc(F)ccc1Cl (stereo not shown) [Compound I-273] |
| 100 to 500 | Cc1c(F)cccc1[C@@H]1NC(=O)c2cc(Br)cc(NC(=O)c3cc(F)cc(C(F)(F)F)c3)c21 [Compound I-750] |
| 500 to 1000 | Cn1cc(-c2cc(NC(=O)c3cc(F)cc(C(F)(F)F)c3)c3c(c2)C(=O)N[C@@H]3c2cc(F)ccc2Cl)ccc1=O (single isomer, unassigned) [Compound I-701] |
| 500 to 1000 | O=C1NC[C@@H](c2cc(NC(=O)c3cc(F)cc(C(F)(F)F)c3)c3c(c2)C(=O)N[C@@H]3c2cc(F)ccc2Cl)O1 (single isomer, unassigned) [Compound I-1560] |
| ≤ 100 | O=C(CO)Nc1cc(NC(=O)c2cc(F)cc(C(F)(F)F)c2)c2c(c1)C(=O)NC2c1cc(F)ccc1Cl (stereo not shown) [Compound I-345] |
| ≤ 100 | O=C(Nc1cc(N2CC3CNC(=O)C3C2)cc2c1C(c1cc(F)ccc1Cl)NC2=O)c1cc(F)cc(C(F)(F)F)c1 (stereo not shown) [Compound I-1309] |
| ≤ 100 | COc1cc2ncnn2cc1-c1cc(NC(=O)c2cc(F)cc(C(F)(F)F)c2)c2c(c1)C(=O)NC2c1cc(F)ccc1Cl (stereo not shown) [Compound I-1700] |
| ≤ 100 | O=C(Nc1cc(NC(=O)C2CCOCC2)cc2c1C(c1cc(F)ccc1Cl)NC2=O)c1cc(F)cc(C(F)(F)F)c1 (stereo not shown) [Compound I-347] |
| 500 to 1000 | O=C1N[C@@H](c2cc(F)ccc2Cl)c2c(NC(=O)N3C[C@@](O)(C(F)(F)F)c4cc(F)ccc43)cc(-n3ncccc3=O)cc21 (single isomer, unassigned) [Compound I-2534] |
| ≤ 100 | CC(C)(O)c1cnc2ccc(-c3cc(NC(=O)c4cc(F)cc(C(F)(F)F)c4)c4c(c3)C(=O)NC4c3cc(F)ccc3Cl)cc2c1 (stereo not shown) [Compound I-1540] |
| ≤ 100 | Cn1cc(-c2cc(NC(=O)c3cc(F)cc(C(F)(F)F)c3)c3c(c2)C(=O)NC3c2cc(F)ccc2Cl)cnc1=O (stereo not shown) [Compound I-1404] |
| ≤ 100 | O=C(Nc1cc(-c2cn(C(F)F)cn2)cc2c1C(c1cc(F)ccc1Cl)NC2=O)c1cc(F)cc(C(F)(F)F)c1 (stereo not shown) [Compound I-1823] |
| ≤ 100 | NC(=O)COc1ncc(-c2cc(NC(=O)c3cc(F)cc(C(F)(F)F)c3)c3c(c2)C(=O)NC3c2cc(F)ccc2Cl)cn1 (stereo not shown) [Compound I-1416] |
